According to patent US9504675B2, “Alpha-ketoheterocycles and methods of making and using” (The Scripps Research Institute, priority 2011, dated 2016):

Assays:
human FAAH (hFAAH) = target: T1, human FAAH (hFAAH) (Homo sapiens, UniProt O00519); experiment: Enzyme assay: inhibition of human FAAH (lysate of hFAAH-transfected COS-7 cells), 14C-oleamide hydrolysis; type: biochemical; details: for reduction in activity against the human enzyme versus rat FAAH: hFAAH vs rFAAH, active (S)-enantiomers
T1 construct: The full-length human FAAH (hFAAH) was expressed in COS-7 cells; expressed in transfected cells; host or cells: COS-7 (transiently transfected with human FAAH cDNA)
T1 sequence (O00519 1-579): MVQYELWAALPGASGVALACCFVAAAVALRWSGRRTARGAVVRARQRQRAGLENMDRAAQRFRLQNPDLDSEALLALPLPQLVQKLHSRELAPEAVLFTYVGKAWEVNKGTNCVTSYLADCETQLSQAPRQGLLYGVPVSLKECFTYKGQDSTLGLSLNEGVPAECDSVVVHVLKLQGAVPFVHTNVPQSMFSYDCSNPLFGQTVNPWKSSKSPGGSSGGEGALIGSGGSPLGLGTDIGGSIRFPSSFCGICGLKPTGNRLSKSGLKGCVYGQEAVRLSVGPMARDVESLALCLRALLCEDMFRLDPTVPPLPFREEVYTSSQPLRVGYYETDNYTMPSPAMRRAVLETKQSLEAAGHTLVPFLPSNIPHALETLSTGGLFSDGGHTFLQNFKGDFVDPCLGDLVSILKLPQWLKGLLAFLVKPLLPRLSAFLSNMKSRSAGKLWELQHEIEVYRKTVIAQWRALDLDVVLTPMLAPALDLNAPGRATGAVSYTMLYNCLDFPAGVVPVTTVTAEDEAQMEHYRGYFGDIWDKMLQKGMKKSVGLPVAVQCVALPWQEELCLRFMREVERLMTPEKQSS
Protocol: Enzyme assays were performed at 20-23° C. with purified recombinant rat FAAH expressed in Escherichia coli or with solubilized COS-7 membrane extracts from cells transiently transfected with human FAAH cDNA (where specifically indicated) in a buffer of 125 mM Tris/1 mM EDTA/0.2% glycerol/0.02% Triton X-100/0.4 mM Hepes, pH 9.0.
^14C-labeled oleamide was prepared from ^14C-labeled oleic acid. The truncated rat FAAH (rFAAH) was expressed in E. coli and purified. The purified recombinant rFAAH was used in the inhibition assays unless otherwise indicated. The full-length human FAAH (hFAAH) was expressed in COS-7 cells as described, and the lysate of hFAAH-transfected COS-7 cells was used in the inhibition assays where explicitly indicated.
The inhibition assays were performed as follows. […] The enzyme reaction was terminated by transferring 20 μL of the reaction mixture to 500 μL of 0.1 N HCl at three different time points. The ^14C-labeled oleamide (substrate) and oleic acid (product) were extracted with EtOAc and analyzed by TLC as detailed. The Ki of the inhibitor was calculated using a Dixon plot as described (standard deviations are provided in the Supporting Information tables).

[1] = system: endogenous levels of FAAH substrates AEA, PEA, OEA and of 2-AG, AA; experiment: In vivo pharmacodynamic studies: brain and liver lipid levels after inhibitor treatment (LC-MS); set-up: species or system mouse (C57BL/6J)
Protocol: This includes monitoring the effects of the inhibitors on the endogenous levels of the FAAH substrates anandamide (AEA, N-arachidonoyl ethanolamine), N-oleoyl ethanolamine (OEA), and N-palmitoyl ethanolamine (PEA), as well as the key lipids 2-arachidonoylglycerol (2-AG) and arachidonic acid (AA) that are not endogenous substrates for FAAH.
Inhibitors were prepared as a saline-emulphor emulsion for intraperitoneal (i.p.) administration by vortexing, sonicating, and gently heating neat compound directly into an 18:1:1 v/v/v solution of saline:ethanol:emulphor, or as a homogeneous PEG solution for oral administration (p.o.) by vortexing, sonicating, and gently heating neat compound directly into PEG300 (Fluka). Male C57BL/6J mice (<6 months old, 20-28 g) were administered inhibitors in saline-emulphor emulsion or an 18:1:1 v/v/v saline:emulphor:ethanol vehicle i.p. at a volume of 10 μL/g weight, or alternatively inhibitors in PEG300 or a PEG300 vehicle p.o. at a volume of 4 μL/g weight. After the indicated amount of time, mice were anesthetized with isofluorane and killed by decapitation. Total brains (˜400 mg) and a portion of the liver (˜100 mg) were removed and flash frozen in liquid N2.
Tissue was weighed and subsequently Dounce homogenized in 2:1:1 v/v/v CHCl3:MeOH:Tris pH 8.0 (8 mL) containing standards for lipids (50 pmol d4-PEA, 2 pmol d4-AEA, 0.5 nmol ds-2-AG, and 10 nmol pentadecanoic acid). The mixture was vortexed and then centrifuged (1,400×g, 10 min). The organic layer was removed, dried under a stream of N2, resolubilized in 2:1 v/v CHCl3:MeOH (120 μL), and 10 μL of this resolubilized lipid was injected onto an Agilent G6410B QQQ instrument. […] Mobile phase A was composed of a 95:5 v/v H2O:MeOH, and mobile phase B was composed of a 65:35:5 v/v/v i-PrOH:MeOH:H2O. 0.1% Formic acid or 0.1% ammonium hydroxide was included to assist in ion formation in positive and negative ionization mode, respectively. The flow rate for each run started at 0.1 mL/min with 0% B. At 5 min, the solvent was immediately changed to 60% B with a flow rate of 0.4 mL/min and increased linearly to 100% B over 10 min. […] MS analysis was performed with an electrospray ionization (ESI) source. […] For negative polarity, the analysis was performed in MS2 scan mode from 100-1000 m/z. The capillary was set to 4 kV, the fragmentor was set to 100 V, and the delta EMV was set to 0. Lipids were quantified by measuring the area under the peak in comparison to the standards.

[2] = Rat liver microsome stability (rlm t1/2); type: in vitro ADME; details: rat liver microsomes
[3] = Human liver microsome stability (hlm t1/2); type: in vitro ADME; details: human liver microsomes
[4] = target: T2, recombinant rat FAAH (rFAAH) (Rattus norvegicus, UniProt P97612); experiment: Enzyme assay: inhibition of purified recombinant rat FAAH, 14C-oleamide hydrolysis, Ki by Dixon plot; type: biochemical; details: Ki, rFAAH, Table 5, active (S)-enantiomers
T2 construct: The truncated rat FAAH (rFAAH) was expressed in E. coli and purified; made in house; host or cells: Escherichia coli
T2 sequence (P97612 30-579 limits assumed): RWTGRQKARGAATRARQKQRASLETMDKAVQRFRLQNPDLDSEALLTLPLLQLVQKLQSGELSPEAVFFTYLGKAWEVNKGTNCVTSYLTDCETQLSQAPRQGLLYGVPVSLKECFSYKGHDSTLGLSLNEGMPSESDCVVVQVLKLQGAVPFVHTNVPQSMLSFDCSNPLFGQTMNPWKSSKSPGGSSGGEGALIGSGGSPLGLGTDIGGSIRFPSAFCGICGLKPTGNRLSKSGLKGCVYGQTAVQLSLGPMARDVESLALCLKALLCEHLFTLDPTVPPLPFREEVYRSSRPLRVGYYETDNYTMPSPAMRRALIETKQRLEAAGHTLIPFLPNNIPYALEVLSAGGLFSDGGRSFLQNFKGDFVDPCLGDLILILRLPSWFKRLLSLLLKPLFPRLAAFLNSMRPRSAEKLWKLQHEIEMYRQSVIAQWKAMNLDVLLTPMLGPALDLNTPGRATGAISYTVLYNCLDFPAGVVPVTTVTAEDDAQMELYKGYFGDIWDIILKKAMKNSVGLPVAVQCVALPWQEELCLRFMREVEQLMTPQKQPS
Outline: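 Hydrolysis of 14C-oleamide at 20-23° C by purified truncated rat FAAH expressed in E. coli or by lysate of COS-7 cells transfected with full-length human FAAH, in 125 mM Tris/1 mM EDTA/0.2% glycerol/0.02% Triton X-100/0.4 mM Hepes, pH 9.0. Reaction stopped in 0.1 N HCl at three time points; substrate and product separated by TLC; Ki from Dixon plot.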

[5] = system: mice, acute thermal pain (tail flick at 52° C.); experiment: Mouse tail flick assay (52° C. warm water), acute thermal pain; type: in vivo, mouse (CD-1); details: i.v. administration
Protocol: Concurrent with these studies, two prototypical inhibitors 12 and 14 were examined for antinociceptive activity in a preclinical model of acute thermal pain (tail flick at 52° C.) in mice alongside 2 and morphine (i.v. administration).
Male CD-1 (25-35 g, Charles River) mice were housed in groups of five in Plexiglas chambers with food and water available ad libitum. All animals were maintained on a 12 h light/dark cycle (lights on at 7:00 AM) in a temperature- and humidity-controlled animal colony. All tail-flick experiments were performed under an approved University of New England animal protocol in accordance with institutional guidelines and in accordance with the Guide for the Care and Use of Laboratory Animals as adopted and promulgated by the National Institutes of Health. Efficacy of the test compound was assessed using the 52° C. warm water tail-flick test. The latency to the first sign of a rapid tail-flick was taken as the behavioral endpoint. Each mouse was first tested for baseline latency by immersing its tail in the water and recording the time to response. Mice not responding within 5 sec were excluded from further testing. Mice were then administered the test compound and tested for antinociception at various time points afterwards. Antinociception was calculated by the following formula: % Antinociception=100×(test latency−control latency)/(10−control latency). A maximum score was assigned (100%) to animals not responding within 10 sec to avoid tissue damage.

[6] = Table 6, 30 mg/kg i.p., 1 h, single mouse
[7] = Table 6, 30 mg/kg i.p., 1 h, single mouse, vs vehicle
[8] = Table 7, i.p. (30 mg/kg), 3 mice per group
[9] = Table 7, i.p. (30 mg/kg), 3 mice per group, vs vehicle
[10] = Table 7, oral (50 mg/kg), 3 mice per group
[11] = Table 7, oral (50 mg/kg), 3 mice per group, vs vehicle

SMILES	reduction in activity against the human enzyme versus rat FAAH (human FAAH (hFAAH))	Brain AEA [1, 6] [pmol/g]	Brain PEA [1, 6] [pmol/g]	Liver 2-AG [1, 6] [pmol/g]	Liver AEA [1, 6] [pmol/g]	Liver PEA [1, 6] [pmol/g]	Brain AEA (fold increase) [1, 7] [fold increase]	Brain PEA (fold increase) [1, 7] [fold increase]	Liver 2-AG (fold increase) [1, 7] [fold increase]	Liver AEA (fold increase) [1, 7] [fold increase]	Liver PEA (fold increase) [1, 7] [fold increase]	half-life [2] [min]	half-life [3] [min]	further results
O=C(CCCCCCc1ccccc1)c1ncc(-c2ccccn2)o1 [Compound 2, reference compound]	no significant distinction	38	540	0.28	14	208	4.8	5.0	0.9	7	1.6	2 to 4	2 to 4	increase in brain levels of anandamide ([1]; p.o. 50 mg/kg, 1 h): 11 fold
O=C(O)c1cccc(-c2cnc(C(=O)C3CCc4cc(Oc5ccccc5)ccc4C3)o2)n1 (centres unmarked) [Compound 14, 6-(2-(6-Phenoxy-1,2,3,4-tetrahydronaphthalene-2-carbonyl)oxazol-5-yl)picolinic acid]	4 fold	12	224	0.35	10	284	1.5	2.0	1.1	5	2.1			Ki [4]: 25 nM; Ki (human FAAH (hFAAH); Table 5, active (S)-enantiomers): 110 nM; Brain 2-AG [1, 6]: 14 pmol/g; Brain AA [1, 6]: 154 pmol/g; Brain 2-AG (fold increase) [1, 7]: 1.0 fold increase; Brain AA (fold increase) [1, 7]: 0.7 fold increase; Brain 2-AG [1, 8]: 8.5 pmol/g; Brain AEA [1, 8]: 9.0 pmol/g; Brain PEA [1, 8]: 321 pmol/g; Brain AEA (fold increase) [1, 9]: 1.6 fold increase; Brain PEA (fold increase) [1, 9]: 4.5 fold increase; Brain 2-AG [1, 10]: 11.2 pmol/g; Brain AEA [1, 10]: 19.8 pmol/g; Brain PEA [1, 10]: 260 pmol/g; Brain AEA (fold increase) [1, 11]: 3.5 fold increase; Brain PEA (fold increase) [1, 11]: 3.7 fold increase; dose needed for maximal effect relative to morphine [5]: 2 fold; duration of antinociceptive effect [5]: 150 min; time of maximal antinociceptive effect [5]: 30 to 60 min; maximal antinociceptive effect (efficacy) ([5]; dose-response alongside morphine): same maximal effect (efficacy) observed with morphine
O=C(c1ncc(-c2ccccn2)o1)C1CCc2cc(OCc3ccccc3)ccc2C1 (centres unmarked) [Compound 18, (6-(Benzyloxy)-1,2,3,4-tetrahydronaphthalen-2-yl)(5-(pyridin-2-yl)oxazol-2-yl)methanone]												12 to 15	12 to 15	
